From article PMC4814262 (Cancer Science, 2016) come the findings set out here.

SMILES strings stand for the structures.

The target of this assay is LAT1 (Homo sapiens, UniProt Q01650). The experiment in a line: radiolabelled uptake in Xenopus oocytes. The class given is cell-based. The settings on record: Na+-free uptake buffer (choline-Cl), pH 7.5, room temperature, 15 min; labelled compound.
Chain of LAT1 (Q01650 whole entry): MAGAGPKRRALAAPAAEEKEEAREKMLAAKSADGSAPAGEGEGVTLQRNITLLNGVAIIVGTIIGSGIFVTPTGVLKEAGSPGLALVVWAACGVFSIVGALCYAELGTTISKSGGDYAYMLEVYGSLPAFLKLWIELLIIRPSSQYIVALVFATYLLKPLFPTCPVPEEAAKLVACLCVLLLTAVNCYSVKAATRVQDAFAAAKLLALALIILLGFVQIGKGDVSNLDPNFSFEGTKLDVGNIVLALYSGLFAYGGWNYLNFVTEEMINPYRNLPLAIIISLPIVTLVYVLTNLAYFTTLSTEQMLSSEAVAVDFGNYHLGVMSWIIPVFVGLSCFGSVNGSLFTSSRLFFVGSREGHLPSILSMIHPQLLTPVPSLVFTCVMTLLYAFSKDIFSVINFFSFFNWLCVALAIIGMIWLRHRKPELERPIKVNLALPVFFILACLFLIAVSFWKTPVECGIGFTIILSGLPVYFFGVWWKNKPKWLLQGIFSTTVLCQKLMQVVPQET
Chain of LAT1 (P08195 103-630 partner): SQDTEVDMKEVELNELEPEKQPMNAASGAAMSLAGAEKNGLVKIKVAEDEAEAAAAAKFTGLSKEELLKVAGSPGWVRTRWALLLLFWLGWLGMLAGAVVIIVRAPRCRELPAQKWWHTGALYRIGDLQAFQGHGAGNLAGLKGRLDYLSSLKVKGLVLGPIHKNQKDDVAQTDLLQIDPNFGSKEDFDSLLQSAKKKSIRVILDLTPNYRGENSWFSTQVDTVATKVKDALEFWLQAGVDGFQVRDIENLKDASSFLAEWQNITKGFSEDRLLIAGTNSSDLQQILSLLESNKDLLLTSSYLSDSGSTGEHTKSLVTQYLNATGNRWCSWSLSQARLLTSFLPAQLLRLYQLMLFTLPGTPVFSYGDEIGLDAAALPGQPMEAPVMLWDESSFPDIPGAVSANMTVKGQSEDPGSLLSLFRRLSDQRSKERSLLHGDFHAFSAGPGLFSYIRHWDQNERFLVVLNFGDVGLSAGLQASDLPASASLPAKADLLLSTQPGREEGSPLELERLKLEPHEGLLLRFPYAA

Take `C[C@](N)(Cc1ccc(O)c(F)c1)C(=O)O` [FAMT, 3‐fluoro‐L‐α‐methyl[carboxyl‐^14C]tyrosine]: the Michaelis-Menten constant (Km) worked out at 72.7 ± 11 µM.

In general, Km refers to the concentration of substrate that gives half-maximal velocity.
